# Laboratory results as given in patent publication US20040260060A1, “Constructs modified downstreams of the initiation codon for recombinant protein” (priority 2000, published 2004).
# Columns and labels:
# [1] = system: chloramphenicol acetyltransferase (CAT) reporter gene; assay: Level of CAT expression by ELISA after IAA induction in Erlenmeyer flask cultures; type: cell-based, E. coli; conditions: for CAT expression: relative to wild-type vector pTEXwt = 1
# From the text: The supernatant is marked “S”.
# The results (mean±standard deviation) were obtained on two independent experiments. […]
# The methods for determining the expression are those used in the examples above.
# [2] = system: TOP10 x pTEXCAT bacteria; assay: Chloramphenicol resistance of TOP10 x pTEXCAT bacteria on agar dishes, colony count and growth; type: cell-based, E. coli; parameters: key to qualitative criterion of colony growth: −: absence of growth; +++: maximum growth; conditions: for number of colonies counted: 18 h at 37° C., approximately 100 cells seeded
# Procedure: The libraries are screened based on the hypothesis that the clones overexpressing the CAT enzyme will have increased resistance to chloramphenicol.
# The numbers (upper row) indicate the number of colonies counted after incubation for 18 h at 37° C., each medium having been seeded with approximately 100 cells.
# The index of the lower row is a qualitative criterion of colony growth (−=absence of growth to +++=maximum growth).
# This implies that clones which overproduce CAT due to an optimized RBS region may either develop more rapidly than the wild-type population at a chloramphenicol concentration lower than the MIC (mininimum inhibitory concentration), or develop in the presence of chloramphenicol concentrations which are lethal for the wild-type population.
# [3] = system: chloramphenicol acetyltransferase (CAT); conditions: IAA-induced extracts
# From the text: The resistant colonies are isolated and subcultured several times on the selection medium in order to confirm their resistance phenotype. The clones selected at this stage are then subjected to a series of analyses: (i) extraction of the plasmid (Qiagen kit, Hilden, Germany) and sequencing of the region covering the RBS, (ii) culturing in Erlenmeyer flasks with induction by IAA and then estimation of the level of CAT expression by ELISA assay, (iii) electrophoresis, by SDS-PAGE, of the total proteins extracted from the preceding cultures and staining with Coomassie Blue to visualize total intracellular proteins. The clones are sequenced using the Dye Terminator kit on an ABI 373A sequencer (Perkin Elmer Applied Biosystems, Foster City, Calif.). The cultures in Erlenmeyer flasks are prepared by seeding 25 ml of TSBY (30 g/l tryptic soy broth (DIFCO)+5 g/l yeast extract (Difco)) medium+8 mg/l tetracycline with a colony on a dish or with a bacterial suspension stored at −80° C. Each preculture is incubated on a platform shaken at 200 rpm, at 37° C. overnight. A fraction is transferred into 50 ml of the same medium so as to reach an initial optical density equal to 1. […] The total proteins contained in the I and S fractions are analyzed by electrophoresis under denaturing conditions (SDS-PAGE) and staining with Coomassie Blue.
# [4] = chloramphenicol 200 μg/ml, IAA = 0
# [5] = chloramphenicol 200 μg/ml, IAA = 25 μg/ml
# [6] = chloramphenicol 300 μg/ml, IAA = 25 μg/ml
# [7] = chloramphenicol 600 μg/ml, IAA = 0
# [8] = chloramphenicol 600 μg/ml, IAA = 25 μg/ml
# [9] = chloramphenicol 700 μg/ml, IAA = 0
# [10] = chloramphenicol 700 μg/ml, IAA = 25 μg/ml
# [11] = chloramphenicol 800 μg/ml, IAA = 0
# [12] = chloramphenicol 800 μg/ml, IAA = 25 μg/ml
compound,measurement,setting,value
"pTEX11′: vector derived from pTEX9′ with additional deletion, SEQ ID No. 35 (DNA UGAGGAGAGUAAUCAUGAAAGAAUUC)",CAT expression,[1],124
"O=C(O)C=Cc1c[nH]c2ccccc12 [IAA, 3-β indole acrylic acid]",development of TOP10 x pTEXCAT bacteria in the presence of IAA versus its absence,[2]; between 300 and 600 μg/ml of chloramphenicol,more strongly
"O=C(N[C@H](CO)[C@H](O)c1ccc([N+](=O)[O-])cc1)C(Cl)Cl [Chloramphenicol, chloramphenicol]",qualitative criterion of colony growth,[2]; [4],+++
same,number of colonies counted,[2]; [4],91
same,qualitative criterion of colony growth,[2]; [5],+++
same,number of colonies counted,[2]; [5],65
same,number of colonies counted,"[2]; chloramphenicol 300 μg/ml, IAA = 0",74
same,qualitative criterion of colony growth,[2]; [6],+++
same,number of colonies counted,[2]; [6],76
same,number of colonies counted,"[2]; chloramphenicol 400 μg/ml, IAA = 0",73
same,number of colonies counted,"[2]; chloramphenicol 400 μg/ml, IAA = 25 μg/ml",53
same,number of colonies counted,"[2]; chloramphenicol 500 μg/ml, IAA = 0",47
same,number of colonies counted,"[2]; chloramphenicol 500 μg/ml, IAA = 25 μg/ml",71
same,qualitative criterion of colony growth,[2]; [7],−
same,number of colonies counted,[2]; [7],0
same,qualitative criterion of colony growth,[2]; [8],−
same,number of colonies counted,[2]; [8],1
same,qualitative criterion of colony growth,[2]; [9],−
same,number of colonies counted,[2]; [9],0
same,qualitative criterion of colony growth,[2]; [10],−
same,number of colonies counted,[2]; [10],0
same,qualitative criterion of colony growth,[2]; [11],−
same,number of colonies counted,[2]; [11],0
same,qualitative criterion of colony growth,[2]; [12],−
same,number of colonies counted,[2]; [12],0
"pTEX10′: vector derived from pTEX9′ with additional deletion, SEQ ID No. 33 (DNA UGAGGAGAGUAAUCAUGAAAGCAGAAUUC)",CAT expression,[1],253
"pTEXCAT: wild-type reference plasmid: pTEXmp18 (Ptrp promoter, TrpL leader) with the CAT reporter gene cloned at EcoRI/PstI; SEQ ID No. 19 (DNA AAGGGUAUCUAGAAUUAUGAAAGCAAUUUUCGUACUGAAUGCGGAAUUC)",CAT expression,[1],1
same,Level of CAT expression,"[1]; relative, level 1 arbitrarily assigned to pTEXCAT, mean±standard deviation of two independent experiments",1
same,CAT band (28 kDa) on SDS-PAGE gel,[3],only a band of low intensity
"pTEX9′: clone from the (R7N6) library, SEQ ID No. 31, deletion of region Ile4Asn8 (DNA UGAGGAGAGUAAUCAUGAAAGCAGCGGAAUUC; expressed or natural sequence)",CAT expression,[1],249
"pTEX12′: vector derived from pTEX9′, initiation codon directly upstream of the cloning site, SEQ ID No. 37 (DNA UGAGGAGAGUAAUCAUGGAAUUC)",CAT expression,[1],155
